Measurements: US20250292907A1, “SYSTEMS AND METHODS FOR PERFORMING GAIT AND SPEECH ASSESSMENT ASSOCIATED WITH A DISEASE STATE” (Regeneron Pharmaceuticals, Inc., priority 2024, published 2025)

Tests used:
[1] = system: subjects with Parkinson's Disease (PD); experiment: Speech assessment with digital mobile speech-based platform in OFF vs ON medication state; assay type: in vivo, human; conditions: before vs after levodopa treatment, FIG. 103
Text: Additionally, subjects were also tasked with performing voice and speech assessments using the digital mobile speech-based platform. These speech and language tasks were designed to evaluate different aspects of verbal ability and cognitive function in participants. In an aspect, these tasks were organized to be conducted in a quiet environment to ensure accurate measurement of speech parameters. In a picture description task, participants are shown a static image depicting an event and asked to describe it in their own words. This task serves as a proxy for spontaneous discourse, providing insights into natural language use. […] In a paragraph reading task, participants were required to read one of three standard paragraphs designed to include all English language phonemes and an equal number of details and information units. This task evaluates reading fluency and pronunciation. […] During this task, gait parameters were measured simultaneously using the wearable insoles test device and the production device. […] This involved repeating the same set of voice-related activities performed in the OFF state, including paragraph reading, picture description, object naming, rapid syllable repetition, and sustained phonation. Conducting these tasks in a quiet environment ensured that the speech parameters were accurately measured without external distractions. […]

[2] = system: subjects with Parkinson's Disease (PD); experiment: Levodopa challenge test: MDS-UPDRS Part III motor examination in OFF state vs ON state; assay type: in vivo, human; conditions: ON minus OFF, mean (SD)
Experimental: To participate in the study, participants were required to meet several inclusion criteria. First, they needed a clinical diagnosis of PD confirmed by a treating movement disorders neurologist. Participants had to be between the ages of 40 and 70. […] Participants had to be willing to undergo a levodopa challenge test, which involves coming to an assessment site for evaluation in the morning after not taking levodopa since the night before (e.g., at least 12 hours). They would then take levodopa at the site, wait for it to take effect (achieving the “ON” state), and repeat the motor evaluation. Additionally, participants needed to be ambulatory in the “OFF” state, meaning they could walk safely without a walking aid on a flat surface at the start of the levodopa challenge test. […]
At step 305, system 100 may receive data from subjects that were assessed in an OFF-state. […]
In some aspects, the site investigator, who is a movement disorders specialist, was tasked with performing the MDS-UPDRS Part III motor examination. […] Specific tasks, including toe tapping and leg agility, were performed using the production device while wearing the wearable insole tests device to enable a quantitative analysis of these movements.
At step 310, system 100 may receive data from the subjects that were assessed in the ON-state. […]

Which results are given for N[C@@H](Cc1ccc(O)c(O)c1)C(=O)O [levodopa]?
change in average word duration between medication states [1]: prevalent trend of decreasing word duration; mean difference in the MDS-UPDRS III between the ON and OFF state ([2]; all subjects): -19.1 (SD=10); mean difference in the LE subscore between the ON and OFF state ([2]; lower extremity subscore of MDS-UPDRS III): −5.7 (SD=4)
